Results reported in patent EP1527784B1, “Method for extracting antineoplastic components from Bupleurum scorzonerifolium and composition comprising lactones” (Buddhist Tzu Chi General Hospital, priority 2003, dated 2005).
≈ marks a conversion by molar mass, not a printed value.

Tests used:
[1] = test system: A549-T12; test: Annexin V-FLOUS / PI flow cytometry for apoptosis, Taxol-resistant cells; type: cell-based; details: Homo sapiens, 48 hours, untreated group 6.8%, read-out: ratio of apoptotic tumor cell
From the text: (§1) The following embodiments are described with Taxol-resistant tumor cell A549-T12 (passage cultured from lung cancer cell line A549 cells with low concentration of taxol) as an example to test the effect of BS-A and its pure compounds (these represent chaihulactone and chaihulactone analogues). Flow cytometry, cytotoxicity, and biomolecular examinations are adopted to estimate the mechanism of Bupleurum scorzonerifolium extracts on Taxol-resistant tumor cells.
FIGs. […] Among these figures, X-axis represents the fluorescent brightness of tumor cells with antibody Annexin V-FLOUS whereas Y-axis represents the fluorescent brightness of tumor cell with antibody PI. […] This indicates isochaihulactone has better induction for apoptosis of Taxol-resistant tumor cell line than other chaihulactone analogues.

[2] = test system: tumor cells; details: in two years; initial treatment stage; cited from earlier work
[3] = test system: A549 cells; test: Cell cycle analysis by flow cytometry (PI); type: cell-based, human; details: FIG. 4; concentration not given
Experimental: Furthermore, flow cytometry is employed to observe the changes in cell cycle before and after the addition of different extracts from Bupleurum scorzonerifolium to A549 cells. In figures 2A through to 2D, X-axis represents chromosome numbers (2N, 4N, etc.) of tumor cells in contact with the antibody, Y-axis represents the fluorescent brightness of Propidium Iodide (PI). It is clearly noted that before treatment lung cancer cell line A549 is mainly at stage of G0/G1, but when 60 µg/ml of BS-AE and 600 µg/ml of BS-ME are added to the tumor cells, the tumor cells are arrested at G2/M stage. This is particularly the case for BS-ME.

[4] = test system: p53; test: Western blotting of tumor suppressor p53; type: cell-based, human; details: A549 cells, FIG. 5, 1 day or 3 days
[5] = test system: A549 cells; test: Annexin V-FLOUS / PI flow cytometry for apoptosis; type: cell-based; details: Homo sapiens, 48 hours, untreated group 3.8%, read-out: proportion of cell death (apoptosis)
Experimental: In A549 cells, 20 µM of Isochaihulactone and 60 µg/ml of BS-AE are added to A549 cell line. After 48 hours of treatment, flow cytometry is utilized to detect the staining results between Annexin V-FLOUS and PI. In FIGs. 3A through to 3C, X-axis represents the fluorescent brightness of tumor cells with antibody Annexin V-FLOUS, and Y-axis represents the fluorescent brightness of tumor cells with antibody PI. From the diagrams, it was shown that the untreated group has only 3.8% of apoptosis, whereas A549 cells treated with Isochaihulactone and BS-AE has much higher proportion of cell death (about 30-40%).

[6] = test system: β-tubulin; test: Immunoblot of soluble and particular (polymerized) β-tubulin in A549 cells; type: cell-based, human; details: FIG. 7
[7] = test system: A549-T12 cells; test: MTT cytotoxicity assay on Taxol-resistant lung cancer cells; type: cell-based; details: Taxol-resistant human lung cancer cell line A549-T12; read-out: concentration that causes 50% growth inhibition (IC50)
From the text: On the other hand, when the BS-AE containing γ-butyrolactone heterocyclic compounds, such as isochaihulactone and BS-AE are applied on Taxol-resistant tumor cell line, for example, human lung cancer cell line A549-T12, they also show anti-tumor effects on the resistant tumor cells. […] Furthermore, the tumor-suppressing effects of those Bupleurum scorzonerifolium extracts after isolated by the extraction method of this invention are more prominent.
as §1
Furthermore, a lower dose (2-4 µg/ml) of isochaihulactone is required to induce apoptosis on A549-T12 cells than that of A549 cells (8-10 µg/ml).

[8] = test system: human hepatoma cell line J5, ovarian cancer cell line OVCAR-3, human malignant glioblastoma cell line DBTRG-05MD, lung cancer cell line A549 and colorectal …; test: MTT cytotoxicity screening of extracts and components on a tumor cell line panel; type: cell-based; details: MTT assay / drug screening; Table 1 cited but not given
Experimental: Each of the aforementioned heterocyclic compounds from each extract as well as the acetone crude extracts of Bupleurum scorzonerifolium are assayed to measure the antineoplastic activity. It was shown that majority of antineoplastic components of Bupleurum scorzonerifolium are retained in the BS-AE and BS-ME. The BS-HE and BS-CE hardly have any tumor-suppressing effects. Besides, the extracts can be further purified using chromatography method (e.g. low pressure liquid chromatography or high performance liquid chromatography (HPLC)), such that fractions are collected separately after each elution to obtain the pure compounds mentioned above.
Moreover, from chemical analysis of the main representative molecular structure of the eighth component, it was observed that the compound shares a common feature shown in formula (I) as having a γ-butyrolactone-centred heterocyclic compound with Z configuration or E configuration at carbon 2(5), or pharmacologically compatible salts, esters, ketones or their derivatives. [drawing 19] where the heterocyclic compound may have a 3R or 3S configuration, X can be N, O, S, or Se, andA, B can be selected from the following substituents: [drawing 20] where R1, R2, R3, R4, R5 can be selected from hydrogen atom, a halogen atom, a hydroxyl group, a sulfoxyl group, an amino group, a methoxyl group, and a nitro group. […]

[9] = test system: p21; test: Western blotting of tumor suppressor p21; type: cell-based, human; details: A549 cells, FIG. 5, 1 day or 3 days

| Compound | cytotoxicity at 8 µg/mL [1] [%] | improvement of survival rate of the patient [2] | cell cycle stage of tumor cells [3] | expression level of tumor suppressor p53 [4] | cytotoxicity at 20 µM [5] [%] | particular form (polymerized β-microtubule) [6] | soluble form (non-polymerized β-microtubule) [6] | IC50 [7] [µg/mL] | antineoplastic effect (comparison among extracts and components) [8] | expression level of tumor suppressor p21 [9] |
| --- | --- | --- | --- | --- | --- | --- | --- | --- | --- | --- |
| COc1ccc(/C=C2\C(=O)OC[C@@H]2Cc2ccc3c(c2)OCO3)cc1OC [BS-15, Isokaerophyllin] | 23.1 | – | – | – | – | – | – | – | – | – |
| CC(=O)O[C@H]1C(=O)[C@@]2(C)[C@H]([C@H](OC(=O)c3ccccc3)[C@]3(O)C[C@H](OC(=O)[C@H](O)[C@@H](NC(=O)c4ccccc4)c4ccccc4)C(C)=C1C3(C)C)[C@]1(OC(C)=O)CO[C@@H]1C[C@@H]2O [Taxol, Paclitaxel] | – | about 15% | – | – | – | – | – | – | – | – |
| COc1cc(/C=C2\C(=O)OC[C@@H]2Cc2ccc3c(c2)OCO3)cc(OC)c1OC [isochaihulactone, Isochaihulactone] | 30.6 | – | arrest at the stage G2/M | increase in expression level | 30 to 40 | increases | significantly diminishes | 2 to 4 (≈ 5.02 to 10 µM) | most prominent anti-tumor effects | increase in expression level |
